US9550751B2, “Processes for the preparation of pesticidal compounds” (Dow AgroSciences LLC, priority 2013, dated 2017)
Counter-ions that a name gives are not always drawn. Like-named read-outs stand apart in the source and are kept apart here.

What was measured:
[1] = system: Green Peach Aphid (Myzus persicae) (MYZUPE); assay: Bioassays on Green Peach Aphid (GPA), foliar spray on cabbage seedlings; format: in vivo; conditions: 72 h, read-out: MYZUPE rating (% Control of Mortality)
Description: Several molecules disclosed herein were tested against GPA using procedures described below.
Cabbage seedling grown in 3-in pots, with 2-3 small (3-5 cm) true leaves, were used as test substrate. The seedlings were infested with […] (wingless adult and nymph stages) one day prior to chemical application. Four pots with individual seedlings were used for each treatment. Test compounds (2 mg) were dissolved in 2 mL of acetone/MeOH (1:1) solvent, forming stock solutions of 1000 ppm test compound. The stock solutions were diluted 5× with 0.025% Tween 20 in water to obtain the solution at 200 ppm test compound. A hand-held aspirator-type sprayer was used for spraying a solution to both sides of the cabbage leaves until runoff. Reference plants (solvent check) were sprayed with the diluent only containing 20% by volume acetone/MeOH (1:1) solvent. Treated plants were held in a holding room for three days at approximately 25° C. and ambient relative humidity (RH) prior to grading. Evaluation was conducted by counting the number of live aphids per plant under a microscope. Percent Control was measured by using Abbott's correction formula (W. S. Abbott, “A Method of Computing the Effectiveness of an Insecticide” J. Econ. Entomol 18 (1925), pp. 265-267) as follows. Corrected % Control=100*(X−Y)/X • where • X=No. of live aphids on solvent check plants and • Y=No. of live aphids on treated plants
The results are indicated in the table entitled “Table 1: GPA (MYZUPE) and sweetpotato whitefly-crawler (BEMITA) Rating Table”.

[2] = system: Sweetpotato Whitefly Crawler (Bemisia tabaci) (BEMITA); assay: Bioassays on Sweetpotato Whitefly Crawler, foliar spray on cotton plants; format: in vivo; conditions: read-out: BEMITA rating (% Control of Mortality)
Description: Cotton plants grown in 3-inch pots, with 1 small (3-5 cm) true leaf, were used at test substrate. The plants were placed in a room with whitely adults. Adults were allowed to deposit eggs for 2-3 days. After a 2-3 day egg-laying period, plants were taken from the adult whitefly room. Adults were blown off leaves using a hand-held Devilbliss sprayer (23 psi). Plants with egg infestation (100-300 eggs per plant) were placed in a holding room for 5-6 days at 82° F. and 50% RH for egg hatch and crawler stage to develop. Four cotton plants were used for each treatment. Compounds (2 mg) were dissolved in 1 mL of acetone solvent, forming stock solutions of 2000 ppm. The stock solutions were diluted 10× with 0.025% Tween 20 in water to obtain a test solution at 200 ppm. A hand-held Devilbliss sprayer was used for spraying a solution to both sides of cotton leaf until runoff. Reference plants (solvent check) were sprayed with the diluent only. Treated plants were held in a holding room for 8-9 days at approximately 82° F. and 50% RH prior to grading. Evaluation was conducted by counting the number of live nymphs per plant under a microscope.

Nc1c[nH]nc1Cl [Compound 1a, 3-chloro-1H-pyrazol-4-amine hydrochloride]
mortality at 200 ppm [1]: 0 to 80% | mortality at 200 ppm [2]: 0 to 80%

CCN(C(=O)CCSCCC(F)(F)F)c1c[nH]nc1Cl [Compound 4.7, N-(3-chloro-1H-pyrazol-4-yl)-N-ethyl-3-((3,3,3-trifluoropropyl)thio)propanamide]
mortality at 200 ppm ([1]; 200 ppm spray on cabbage seedlings, graded after three days, Abbott's correction, live aphids): < 0%

CCNc1c[nH]nc1Cl [Compound 7a, 3-Chloro-N-ethyl-1H-pyrazol-4-amine]
mortality at 200 ppm [1]: < 0%
